Measurements published in EPA's ToxValDB 9.5 (doi:10.2903/j.efsa.2013.3298).
Values after ≈ are worked out from the molar mass of the structure shown.

What was measured:
Apis mellifera = details: acute; duration: 48 hours; oral; unspecified; mortality
Canidae = details: oral, M/F, Dog Other, hematological
Colinus virginianus = details: for LD50: acute, oral, mortality
Cyprinodon variegatus = details: acute; duration: 96 hours; mortality
Daphnia magna = details: chronic/long-term; duration: 21 days; reproduction
Pimephales promelas = details: chronic/long-term; duration: 35 days; body weight
Aphidius rhopalosiphi = experiment: LR50; higher = less toxic; details: acute; duration: 14 days; mortality
Typhlodromus pyri = experiment: LR50; higher = less toxic; details: chronic/long-term; duration: 14 days; mortality

Compound: Cc1cc(C(F)(C(F)(F)F)C(F)(F)F)ccc1NC(=O)c1cccc(I)c1C(=O)NC(C)(C)CS(C)(=O)=O [Flubendiamide]
- NOEL (Anas platyrhynchos; reproductive, reproduction): 26 mg/kg-day
- LD50 (Anas platyrhynchos; short-term, oral, feed, mortality): > 1020 mg/kg-day
- LD50 (Apis mellifera): > 200 µg/piece
- LC50 (Bibionidae; acute, duration: 48 hours, mortality): 1.88 µg/mL (≈ 2.75 µM)
- NOEC (Bibionidae; chronic/long-term, duration: 28 days, development): 35 µg/L
- NOAEL (Canidae; chronic, duration: 1 years): 2.21 mg/kg-day
- NOAEL (Canidae; subchronic, duration: 90 days): 2.6 mg/kg-day
- LD50 (Colinus virginianus; diet): > 1080 mg/kg-day
- LD50 (Colinus virginianus): > 2000 mg/kg
- NOEL (Colinus virginianus; reproduction developmental, reproduction): 10.2 mg/kg-day
- LC50 (Cyprinodon variegatus): > 0.0298 µg/mL
- NOEC (Daphnia magna): 0.4 µg/L
- NOEC (Pimephales promelas): 60.2 µg/L
- LD50 (Rattus norvegicus; acute, oral, M/F, mortality): > 2000 mg/kg
- NOAEL (Rattus norvegicus; chronic, M, hematological): 1.7 mg/kg-day
- NOAEL (Rattus norvegicus; developmental, development): 10 mg/kg-day
- NOAEL (Rattus norvegicus; reproduction developmental, F, reproduction): 3.68 mg/kg-day
- LC50 (Tagia sp.; acute, duration: 14 days, mortality): > 1000 mg/kg
- NOEC (Tagia sp.; chronic/long-term, duration: 56 days, reproduction): 1000 mg/kg
- LR50 (Aphidius rhopalosiphi): > 675 g/ha
- LR50 (Typhlodromus pyri): > 675 g/ha
